# Legend:
# IgA in feces = test: Amount of IgA in feces of mice ingesting lactosucrose diet (Experiment 1); type: in vivo; details: Lactosucrose 5% (w/w) diet
# Experimental: An experiment for investigating the effect of lactosucrose ingestion on the enhancement of gut immunity was carried out by measuring the amount of IgA in feces of mice. Female BALB/c mice (six weeks old) were preliminary reared for one week on “AIN-93G”, containing 40% (w/w) of corn starch, 20% (w/w) of casein, 13.2% (w/w) of α-corn starch, 10% (w/w) of sucrose, 7% (w/w) of soybean oil, 5% (w/w) of cellulose, 3.5% (w/w) of mineral mixture, 1% (w/w) of vitamin mixture, 0.3% (w/w) of L-cystine, and 0.0014% (w/w) of hydroquinone, which is a standard purified diet for researching the nutrition of mice and rats published by American National Institute of Nutrition in 1993. Successively, “LS-90P”, a saccharide composition comprising 91.8% (w/w), onadrysolid basis, of lactosucrose commercialized by ENSUIKO Sugar Refining Co., Ltd., Tokyo, Japan, was incorporated into the above purified diet, in which corn starch equal to the amount of the saccharide composition comprising lactosucrose had been removed, to give a lactosucrose content of 5% (w/w), and five mice/group were allowed to ingest the resulting test diet freely. Mice, allowed to ingest “AIN-93G”, as the standard purified diet, were used as control. Then, fresh feces were collected from the mice at one week, two weeks, three weeks, and four weeks after starting the administration of the test diet and the control diet, and the amount of IgA in the feces was measured by ELISA using anti-IgA antibody (Mouse IgA ELISA Quantitation Kit produced by Bethyl Laboratories, Inc., Texas, USA). The amount of IgA was expressed by mg/g-wet feces and the average value of those from five mice was determined. The percentages in parentheses in Table 1 mean relative values to those of the control at respective weeks.
# [1] = test system: anti-OVA-IgE, IgG1, IgG2a in serum; test: Anti-OVA antibody in serum of OVA/alum-sensitized mice (Experiment 4); type: in vivo; details: for Anti-OVA-IgG1 in serum / Anti-OVA-IgG2a in serum / Anti-OVA-IgG1 in serum, relative value to control / Anti-OVA-IgG2a in serum, relative value to control: two weeks after the second sensitization
# Experimental: In order to investigate the effect of lactosucorse on systemic immunity, antibody level in serum was measured. Similarly as in Experiment 1, female BALB/c mice (six weeks old) were preliminary reared for one week on “AIN-93G”, the same standard purified diet as used in Experiment 1. Successively, “NYU-KA OLIGO 700”, a saccharide composition comprising 71.4% (w/w), on a dry solid basis, of lactosucrose commercialized by Hayashibara Shoji Inc., Okayama, Japan, was incorporated into the above purified diet, in which corn starch equal to the amount of the saccharide composition comprising lactosucrose had been removed, to give a lactosucrose content of 2% (w/w) or 5% (w/w), and five to seven mice/group were allowed to ingest the resulting test diet freely. Mice, allowed to ingest “AIN-93G”, as the standard purified diet, were used as control. At 10 days after from starting the administration of the test diet, mice were sensitized to antigen by administrating 20 μg of ovalbumin (OVA) (grade V, commercialized by Sigma Corporation) as antigen and 4.5 mg of “IMJECT®”, alum commercialized by Pierce ThermoScientific as adjuvant, into the peritoneal cavity. Successively, 15 days after from the first sensitization, the second sensitization was carried out by the same procedure. The blood was collected from caudal vein of mice at one, two, and three weeks after from the second sensitization, the serum was collected by centrifugation, and the amount of IgE to OVA was measured by EIA. In the cases of IgG1 and IgG2a, the amount of antibody was measured using serum collected at two weeks after from the second sensitization. The IgE and IgG2a titers were measured by capture EIA and IgG1 titer was measured by indirect EIA. Each titer was calculated by calibration curve prepared by using anti-OVA mouse serum (IgE: 1.760 U/ml, IgG1: 128,000 U/ml, IgG2a: 7,040 u/ml) as a standard serum. The amounts of IgE at one, two, or three weeks after from the second sensitization are in Table 5, and the amounts of IgG1 and IgG2a of two weeks after from the second sensitization are in Table 6. The percentages in parentheses in tables mean a relative value to the antibody concentration in serum of the control mice.
structure (smiles),measurement,setting,value
"OC[C@H]1O[C@@H](O[C@H]2[C@H](O)[C@@H](O)[C@@H](O[C@]3(CO)O[C@H](CO)[C@@H](O)[C@@H]3O)O[C@@H]2CO)[C@H](O)[C@@H](O)[C@H]1O [Lactosucrose, β-D-galactosyl-(1,4)-α-D-glucosyl-(1,2)-β-D-fructoside]","Amount of IgA in feces, relative value to control",IgA in feces; 1 week after,(232%)
same,Amount of IgA in feces,IgA in feces; 1 week after (8 weeks old),13 ± 2.6 mg/g
same,"Amount of IgA in feces, relative value to control",IgA in feces; 2 weeks after,(285%)
same,Amount of IgA in feces,IgA in feces; 2 weeks after (9 weeks old),5.7 ± 2.3 mg/g
same,"Amount of IgA in feces, relative value to control",IgA in feces; 3 weeks after,(543%)
same,Amount of IgA in feces,IgA in feces; 3 weeks after (10 weeks old),7.6 ± 1.4 mg/g
same,"Amount of IgA in feces, relative value to control",IgA in feces; 4 weeks after,(755%)
same,Amount of IgA in feces,IgA in feces; 4 weeks after (11 weeks old),8.3 ± 1.9 mg/g
same,Anti-OVA-IgE in serum,"[1]; Lactosucrose 2% (w/w) diet, one week after the 2nd sensitization",270 ± 160 U/ml
same,Anti-OVA-IgE in serum,"[1]; Lactosucrose 2% (w/w) diet, three weeks after the 2nd sensitization",110 ± 62 U/ml
same,Anti-OVA-IgE in serum,"[1]; Lactosucrose 2% (w/w) diet, two weeks after the 2nd sensitization",150 ± 35 U/ml
same,Anti-OVA-IgG1 in serum,[1]; Lactosucrose 2% (w/w) diet,27 ± 10 ×10^4 U/ml
same,Anti-OVA-IgG2a in serum,[1]; Lactosucrose 2% (w/w) diet,4.0 ± 3.4 ×10^4 U/ml
same,"Anti-OVA-IgE in serum, relative value to control","[1]; Lactosucrose 2% (w/w), one week after the 2nd sensitization",(87%)
same,"Anti-OVA-IgE in serum, relative value to control","[1]; Lactosucrose 2% (w/w), three weeks after the 2nd sensitization",(52%)
same,"Anti-OVA-IgE in serum, relative value to control","[1]; Lactosucrose 2% (w/w), two weeks after the 2nd sensitization",(58%)
same,"Anti-OVA-IgG1 in serum, relative value to control",[1]; Lactosucrose 2% (w/w),(68%)
same,"Anti-OVA-IgG2a in serum, relative value to control",[1]; Lactosucrose 2% (w/w),(41%)
same,Anti-OVA-IgE in serum,"[1]; Lactosucrose 5% (w/w) diet, one week after the 2nd sensitization",290 ± 77 U/ml
same,Anti-OVA-IgE in serum,"[1]; Lactosucrose 5% (w/w) diet, three weeks after the 2nd sensitization",160 ± 57 U/ml
same,Anti-OVA-IgE in serum,"[1]; Lactosucrose 5% (w/w) diet, two weeks after the 2nd sensitization",120 ± 32 U/ml
same,Anti-OVA-IgG1 in serum,[1]; Lactosucrose 5% (w/w) diet,28 ± 7.5 ×10^4 U/ml
same,Anti-OVA-IgG2a in serum,[1]; Lactosucrose 5% (w/w) diet,4.8 ± 3.8 ×10^4 U/ml
same,"Anti-OVA-IgE in serum, relative value to control","[1]; Lactosucrose 5% (w/w), one week after the 2nd sensitization",(94%)
same,"Anti-OVA-IgE in serum, relative value to control","[1]; Lactosucrose 5% (w/w), three weeks after the 2nd sensitization",(48%)
same,"Anti-OVA-IgE in serum, relative value to control","[1]; Lactosucrose 5% (w/w), two weeks after the 2nd sensitization",(46%)
same,"Anti-OVA-IgG1 in serum, relative value to control",[1]; Lactosucrose 5% (w/w),(70%)
same,"Anti-OVA-IgG2a in serum, relative value to control",[1]; Lactosucrose 5% (w/w),(49%)
